In one data set the test system is C57Bl/6J mice. The experiment in a line: PCP-induced hyperactivity, open field test. Type of data set: in vivo, mouse. Conditions: p.o. 30 min prior to PCP (5.0 mg/kg i.p.), 90 min. test. The procedure:
One exemplary model for testing the activity of one or more compounds described herein to treat and/or prevent and/or delay the onset and/or development of schizophrenia employs phencyclidine (PCP), which is administered to the animal (e.g., non-primate (rat) or primate (monkey)), resulting in dysfunctions similar to those seen in schizophrenic humans. See Jentsch et al., 1997, Science 277:953-955 and Piercey et al., 1988, Life Sci. 43(4):375-385). Standard experimental protocols may be employed in this or in other animal models. One protocol involves PCP-induced hyperactivity.
(§1) Male C57Bl/6J mice from Jackson Laboratories (Bar Harbor, Me.) were used. Mice were received at 6-weeks of age. Upon receipt, mice were assigned unique identification numbers (tail marked) and were group housed with 4 mice/cage in OPTIMICE ventilated cages. All animals remained housed in groups of four during the remainder of the study. All mice were acclimated to the colony room for at least two weeks prior to testing and were subsequently tested at an average age of 8 weeks of age. During the period of acclimation, mice were examined on a regular basis, handled, and weighed to assure adequate health and suitability. Animals were maintained on a 12 h/12 h light/dark cycle. The room temperature was maintained between 20 and 23° C. with a relative humidity maintained between 30% and 70%. Food and water were provided ad libitum for the duration of the study. In each test, animals were randomly assigned across treatment groups.
The following compounds were used for this study: 1) Compound Nos 83, 88, 90 (0.03, 0.1, 0.3, 1, 3, 10 & 30 mg/kg) was dissolved in 5% PEG-200 in sterile water and administered p.o. 30 min prior to PCP injection; 2) Clozapine (1.0 mg/kg) was dissolved in 10% DMSO and administered i.p. 30 min prior to phencyclidine (PCP) injection; 3) PCP (5.0 mg/kg) was dissolved in sterile water and administered i.p. immediately before the 60 min. test. All compounds were administered at a dose volume of 10 mL/kg.
The open filed (OF) test assesses locomotor behavior, i.e. to measure mouse locomotor activity at baseline and in response to pharmacological agents. The open field chambers are Plexiglas square chambers (27.3×27.3×20.3 cm; Med Associates Inc., St Albans, Vt.) surrounded by infrared photobeams (16×16×16) to measure horizontal and vertical activity. […] Distance traveled was measured from horizontal beam breaks as the mouse moved whereas rearing activity was measured from vertical beam breaks. […]
Data were analyzed by analysis of variance (ANOVA) followed by post-hoc comparisons with Fisher Tests when appropriate. Baseline activity was measured during the first 30 min. of the test prior to PCP injection. PCP-induced activity was measured during the 60 min. following PCP injection. […]

The test system of another data set is C57B1I6J mice. The experiment in a line: Catalepsy in the mouse bar test (EPS model). Type of data set: in vivo. Conditions: for effects on catalepsy, ANOVA: 0.03, 0.1, 0.3, 1, 3, 10, 30 oral, 30 min, 1 h, and 3 h, incl. haloperidol group.
Excerpt: Antipsychotic drugs are known to induce extrapyramidal syndrome (EPS) in animals and in humans. An animal model considered to be predictive of EPS is the mouse bar test, which measures cataleptic responses to pharmacological agents.
as §1, with “Male C57B1I6J” for “Male C57Bl/6J”, “in OptiMICE” for “in OPTIMICE”, “8 weeks.” for “8 weeks of age.”, “70%. Chow” for “70%. Food”
The following compounds were used for this study. 1) Compound No. 83, 88 or 90 (0.03, 0.1, 0.3, 1, 3, 10, 30) was dissolved in 3% Tween in PBS and administered orally at a dose volume of 10 mL/kg; 2) Haloperidol (2 mg/kg) was dissolved in 10% DMSO and administered i.p. at a dose volume of 10 mL/kg.
The front paws of a mouse were placed on a horizontal metal bar raised 2″ above a Plexiglas platform and time was recorded for up to 30 seconds per trial. The test ended when the animal's front paws returned to the platform or after 30 seconds. The test was repeated three times and the average of the three trials was reported as the intensity index of catalepsy. Antipsychotic agents such as haloperidol cause rigidity as a side effect. Animals treated with haloperidol will hold on to the bar without moving for several minutes. Mice were brought to the activity experimental room for at least 1 h acclimation to the experimental room conditions prior to testing. Following injection of either vehicle, Compound No. 83, 88 or 90, or haloperidol, catalepsy was assessed at 3 time points: 30 min, 1 h, and 3 h. At the end of each trial, the apparatus was thoroughly cleaned with 70% ethanol.
Data were analyzed by analysis of variance (ANOVA) followed by post-hoc comparisons with Fisher Tests when appropriate. An effect was considered significant if p<0.05.

Each structure is given as a SMILES string.

Experimental findings from patent US8906925B2, “Pyrido[4,3-B]indoles containing rigid moieties” (Medivation Technologies, Inc., priority 2008, dated 2014) are described below.

In the case of `C/C(=C\n1c2c(c3cc(Cl)ccc31)CN(C)CC2)c1ccncc1` [Compound 90, (E)-8-chloro-2,3,4,5-tetrahydro-2-methyl-5-(2-(pyridin-4-yl)prop-1-enyl)-1H-pyrido[4,3-b]indole], the “Total Distance Traveled (center+periphery), ANOVA” value (“Total Distance Traveled” below) in the data set with C57Bl/6J mice is reported as “significant treatment effect”. For the same molecule, the “latency to hold the bar” value in the data set with C57B1I6J mice (10 mg/kg, oral) is reported as “increase”. The “sedation observed in bar test” value in the data set with C57B1I6J mice (10 mg/kg, oral) is recorded as “also caused sedation, but at lower levels”; in the data set on C57B1I6J mice (30 mg/kg, oral) it was “caused high levels of sedation”. Further, in the data set with C57B1I6J mice, the “effects on catalepsy, ANOVA” value is “significant treatment effect”.

In the case of `C/C(=C\n1c2c(c3cc(Cl)ccc31)CN(C)CC2)c1ccc(F)cc1` [Compound 83, (E)-8-chloro-5-(2-(4-fluorophenyl)prop-1-enyl)-2,3,4,5-tetrahydro-2-methyl-1H-pyrido[4,3-b]indole], the “Total Distance Traveled” value in the data set on C57Bl/6J mice was “significant treatment effect”. For the same molecule, the “Total Rearing (center+periphery), ANOVA” value with C57Bl/6J mice is “significant treatment effect”. Besides, the “sedation observed in bar test” value with C57B1I6J mice (10 mg/kg, oral) was “also caused sedation, but at lower levels”; in the data set on C57B1I6J mice (30 mg/kg, oral) it was “caused sedation”. Also, the “effects on catalepsy, ANOVA” value in the data set with C57B1I6J mice is on record as “significant treatment effect”.

As for `C/C(=C\n1c2c(c3cc(C)ccc31)CN(C)CC2)c1ccncc1` [Compound 88, (E)-2,3,4,5-tetrahydro-2,8-dimethyl-5-(2-(pyridin-4-yl)prop-1-enyl)-1H-pyrido[4,3-b]indole], in the data set on C57Bl/6J mice, the “Total Distance Traveled” value was “significant treatment effect”. In the data set on C57B1I6J mice, the “effects on catalepsy, ANOVA” value is “significant treatment effect”. The “sedation observed in bar test” value in the data set on C57B1I6J mice (30 mg/kg, oral) is on record as “caused sedation”. In the data set with C57B1I6J mice (doses other than 30 mg/kg, oral), the “other effects in bar test” value is on record as “No other effects”.
